According to US8334302B2, “Synthesis and anti-proliferative effect of substituted imidazo[4,5-b]pyridine compounds” (Spelman College, priority 2008, dated 2012):
pIC50: −log10 of the molar value.

Key:
[1] = system: PC-3 human prostate cancer cells; assay: Inhibition of cell proliferation in PC-3 cells, DNA assay (Hoechst 33258); type: cell-based; settings: for pIC50: Homo sapiens, inhibition of PC-3 cells, read-out: PC3 IC50
Protocol: Cell Culture and Drug Treatment. PC-3 human prostate cancer cells were seeded in duplicate 96 well tissue culture plates at 500 cells/well in 80-μL Dulbecco's […] (DMEM) supplemented with 5% fetal bovine serum (FBS) and nonessential amino acids and 1% equimolar mixture of streptomycin-penicllin. The flasks were incubated in a humidified 95% air/5% CO2 atmosphere. The cells were grown for at least 24 hours to ensure that they were in the early log phase of growth. Cells were then treated with 20-μL drug solutions (stock 10 mM drug solution in DMSO was diluted in DMEM containing 5% FBS such that final DMSO concentration is less than 1%) of appropriate final concentration by serial dilution. Untreated control cells received 20-μL DMEM containing 5% FBS. Six wells of each plate received the same drug concentration. Thus, each data point and error bars are an average and standard deviation of readings from 12 wells treated with identical drug concentration.
DNA Assay. After appropriate time of incubation, DNA assay was performed. For DNA assay, each culture plate was washed with 25% PBS and incubated in deionized double distilled water for at least one hour at room temperature. Plates were frozen at −70° C. and thawed/equilibrated to room temperature. Hoechst 33258 DNA binding dye was then added to each well in 200-μL of high salt TNE buffer (10 mM Tris, 1 mM EDTA, 2 M NaCl [pH 7.4]) at a final concentration of 6.7-μg/mL. After further incubation at room temperature for 2 hours under protection from light, culture plates were scanned on the CytoFluor 2350™ scanner using the 360/460 nm filter excitation and emission set. Readings from all plates were normalized to the fluorescence of control untreated cells and all data were expressed as the percent control.

PC-3 cells = settings: micromolar concentrations; cited from earlier work
IKKβ(h) = molecular target: T1, IKKβ(h) (Homo sapiens, UniProt O14920); assay: Kinase assay, Millipore KinaseProfiler, radiometric; type: biochemical; settings: IKKβ(h) activity in presence of compound
T1 construct: purchased Millipore (KinaseProfiler Service)
T1 sequence (O14920 1-756): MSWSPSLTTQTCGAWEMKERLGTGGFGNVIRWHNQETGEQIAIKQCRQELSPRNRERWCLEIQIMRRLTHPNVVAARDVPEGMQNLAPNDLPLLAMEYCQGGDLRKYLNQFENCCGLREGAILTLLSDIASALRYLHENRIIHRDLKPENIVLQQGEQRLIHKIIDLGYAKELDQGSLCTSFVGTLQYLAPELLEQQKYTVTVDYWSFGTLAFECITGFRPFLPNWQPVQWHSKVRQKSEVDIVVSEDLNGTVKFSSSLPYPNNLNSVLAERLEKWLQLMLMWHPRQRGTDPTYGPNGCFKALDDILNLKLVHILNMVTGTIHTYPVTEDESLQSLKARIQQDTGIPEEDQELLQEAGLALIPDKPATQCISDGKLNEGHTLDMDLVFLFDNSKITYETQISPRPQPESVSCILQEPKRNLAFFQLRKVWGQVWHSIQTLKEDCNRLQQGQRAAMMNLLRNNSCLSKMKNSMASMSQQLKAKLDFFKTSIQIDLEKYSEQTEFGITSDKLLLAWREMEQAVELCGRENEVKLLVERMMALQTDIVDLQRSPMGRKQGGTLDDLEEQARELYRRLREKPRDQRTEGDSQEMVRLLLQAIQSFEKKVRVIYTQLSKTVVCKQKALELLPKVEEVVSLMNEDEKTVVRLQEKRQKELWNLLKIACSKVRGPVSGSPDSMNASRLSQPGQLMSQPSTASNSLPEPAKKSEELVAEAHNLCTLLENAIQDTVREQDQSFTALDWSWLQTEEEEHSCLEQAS
Protocol: (§1) Kinase Assays. Kinase assays were conducted by Millipore's KinaseProfiler Service to determine the amount of ATP phosphorylation that occurs in the presence of a benzimidazole molecule. Kinases assayed included IKKβ, CK2, CDK1/cyclinB, GSK3β, and p70S6K. The desired kinase was treated with the benzimidazole compound The reaction were initiated by the addition of the MgATP mix. After incubation for 40 minutes at room temperature, the reaction is stopped by the addition of 3% phosphoric acid solution. 10 μL of the reaction was then spotted onto a P30 filtermat and washed three times for 5 minutes in 75 mM phosphoric acid and once in methanol prior to drying and scintillation counting. The kinase activity was measured radiometrically to determine the amount of ATP phosphorylation produced. All assays were done in triplicate.

GSK3β(h) = molecular target: T2, GSK3β(h) (Homo sapiens, UniProt P49841); assay: as above; type: biochemical; settings: GSK3β(h) activity in presence of compound
T2 construct: purchased Millipore (KinaseProfiler Service)
Protocol: as §1

p70S6K(h) = molecular target: T3, p70S6K(h) (Homo sapiens, UniProt P23443); assay: as above; type: biochemical; settings: p70S6K(h) activity in presence of compound
T3 construct: purchased Millipore (KinaseProfiler Service)
Protocol: as §1

CK2(h) = molecular target: T4, CK2(h) (Homo sapiens, UniProt P68400); assay: as above; type: biochemical; settings: CK2(h) activity in presence of compound
T4 construct: purchased Millipore (KinaseProfiler Service)
Protocol: as §1

CDK1/cyclinB(h) = molecular target: T5, CDK1/cyclinB(h) (Homo sapiens, UniProt P06493); assay: as above; type: biochemical; settings: CDK1/cyclinB(h) activity in presence of compound
T5 construct: purchased Millipore (KinaseProfiler Service)
Protocol: as §1

PDK1(h) = molecular target: T6, PDK1(h) (Homo sapiens, UniProt O15530); assay: as above; type: biochemical; settings: PDK1(h) activity in presence of compound
T6 construct: purchased Millipore (KinaseProfiler Service)
T6 sequence (O15530 1-556): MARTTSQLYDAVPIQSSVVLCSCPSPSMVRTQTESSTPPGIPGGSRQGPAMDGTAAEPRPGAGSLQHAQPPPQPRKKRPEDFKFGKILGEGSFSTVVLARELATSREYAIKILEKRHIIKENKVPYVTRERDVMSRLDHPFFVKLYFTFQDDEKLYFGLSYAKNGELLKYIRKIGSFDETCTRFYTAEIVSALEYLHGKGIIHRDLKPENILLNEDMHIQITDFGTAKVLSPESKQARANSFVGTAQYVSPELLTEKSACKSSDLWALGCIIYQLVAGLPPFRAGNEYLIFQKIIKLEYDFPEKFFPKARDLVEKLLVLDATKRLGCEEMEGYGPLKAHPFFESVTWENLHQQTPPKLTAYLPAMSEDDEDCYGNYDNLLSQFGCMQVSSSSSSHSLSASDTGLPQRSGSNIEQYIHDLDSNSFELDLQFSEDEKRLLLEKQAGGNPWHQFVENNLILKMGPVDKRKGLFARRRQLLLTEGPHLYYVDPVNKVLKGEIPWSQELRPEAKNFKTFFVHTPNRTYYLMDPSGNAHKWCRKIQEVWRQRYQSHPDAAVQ

T3 sequence (P23443 whole entry): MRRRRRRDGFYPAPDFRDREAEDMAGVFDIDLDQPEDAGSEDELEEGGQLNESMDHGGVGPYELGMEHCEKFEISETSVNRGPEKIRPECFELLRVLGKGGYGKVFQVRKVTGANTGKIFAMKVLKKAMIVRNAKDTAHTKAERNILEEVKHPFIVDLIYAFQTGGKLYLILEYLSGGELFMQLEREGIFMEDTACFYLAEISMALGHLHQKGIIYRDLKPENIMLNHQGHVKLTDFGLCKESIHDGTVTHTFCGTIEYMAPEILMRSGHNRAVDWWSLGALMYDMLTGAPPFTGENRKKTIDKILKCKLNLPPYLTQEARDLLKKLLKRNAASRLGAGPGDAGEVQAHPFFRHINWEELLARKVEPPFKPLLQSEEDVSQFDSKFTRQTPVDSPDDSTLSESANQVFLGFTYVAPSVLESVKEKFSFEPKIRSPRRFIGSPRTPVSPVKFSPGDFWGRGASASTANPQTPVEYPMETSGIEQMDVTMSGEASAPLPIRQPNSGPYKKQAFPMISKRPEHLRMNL
T4 sequence (P68400 whole entry): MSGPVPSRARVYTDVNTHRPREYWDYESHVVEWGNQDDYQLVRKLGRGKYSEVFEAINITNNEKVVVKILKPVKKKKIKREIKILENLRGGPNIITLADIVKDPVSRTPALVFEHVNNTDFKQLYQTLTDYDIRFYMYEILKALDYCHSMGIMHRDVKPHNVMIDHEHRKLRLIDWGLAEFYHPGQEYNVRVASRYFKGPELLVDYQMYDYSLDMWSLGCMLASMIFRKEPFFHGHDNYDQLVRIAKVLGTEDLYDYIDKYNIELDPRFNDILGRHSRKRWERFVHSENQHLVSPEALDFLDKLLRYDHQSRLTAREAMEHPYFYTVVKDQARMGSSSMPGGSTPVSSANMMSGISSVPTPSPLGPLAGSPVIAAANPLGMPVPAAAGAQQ
T4 sequence (P67870 whole entry partner): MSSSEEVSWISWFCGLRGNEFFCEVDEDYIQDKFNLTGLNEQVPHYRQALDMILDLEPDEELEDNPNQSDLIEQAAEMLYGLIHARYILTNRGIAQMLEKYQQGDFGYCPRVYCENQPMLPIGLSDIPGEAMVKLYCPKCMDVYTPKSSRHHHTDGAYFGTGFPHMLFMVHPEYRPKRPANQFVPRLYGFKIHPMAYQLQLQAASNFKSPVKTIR
T5 sequence (P06493 whole entry): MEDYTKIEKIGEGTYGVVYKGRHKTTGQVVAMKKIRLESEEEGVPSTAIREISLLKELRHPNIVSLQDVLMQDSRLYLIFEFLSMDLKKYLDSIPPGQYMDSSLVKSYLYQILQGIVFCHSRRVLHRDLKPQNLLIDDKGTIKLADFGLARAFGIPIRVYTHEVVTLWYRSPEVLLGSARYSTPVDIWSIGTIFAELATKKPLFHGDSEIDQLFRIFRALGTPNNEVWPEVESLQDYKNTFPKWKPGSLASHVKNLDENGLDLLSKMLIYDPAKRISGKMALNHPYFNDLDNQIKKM
T5 sequence (P14635 whole entry partner): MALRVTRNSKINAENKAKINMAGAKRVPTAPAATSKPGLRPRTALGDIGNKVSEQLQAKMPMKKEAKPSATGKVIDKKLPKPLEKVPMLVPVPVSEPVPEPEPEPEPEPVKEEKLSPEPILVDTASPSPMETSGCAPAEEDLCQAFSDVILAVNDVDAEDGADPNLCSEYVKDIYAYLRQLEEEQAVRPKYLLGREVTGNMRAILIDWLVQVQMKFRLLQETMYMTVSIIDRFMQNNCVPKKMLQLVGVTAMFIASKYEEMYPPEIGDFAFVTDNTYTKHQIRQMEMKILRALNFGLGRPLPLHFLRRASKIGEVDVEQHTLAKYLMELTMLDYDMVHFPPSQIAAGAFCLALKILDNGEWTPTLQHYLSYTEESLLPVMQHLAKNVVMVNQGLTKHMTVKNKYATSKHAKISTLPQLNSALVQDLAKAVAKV
T2 sequence (P49841 whole entry): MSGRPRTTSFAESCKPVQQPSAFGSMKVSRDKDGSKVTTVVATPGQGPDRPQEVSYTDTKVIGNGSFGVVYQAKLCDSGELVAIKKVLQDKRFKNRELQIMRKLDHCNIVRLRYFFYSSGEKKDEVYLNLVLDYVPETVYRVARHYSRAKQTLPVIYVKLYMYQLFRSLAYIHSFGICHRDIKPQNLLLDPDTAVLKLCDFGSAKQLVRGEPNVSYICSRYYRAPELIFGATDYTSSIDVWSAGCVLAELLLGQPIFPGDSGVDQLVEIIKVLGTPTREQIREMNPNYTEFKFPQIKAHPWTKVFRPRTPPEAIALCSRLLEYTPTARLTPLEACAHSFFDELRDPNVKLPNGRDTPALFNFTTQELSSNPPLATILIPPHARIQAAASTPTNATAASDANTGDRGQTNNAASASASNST

| pIC50 [1] | % Activity (IKKβ(h)) [%] | % Activity (GSK3β(h)) [%] | % Activity (p70S6K(h)) [%] | % Activity (CK2(h)) [%] | % Activity (CDK1/cyclinB(h)) [%] | Structure (SMILES) | other results |
| --- | --- | --- | --- | --- | --- | --- | --- |
| 4.52 | – | – | – | – | – | Cc1ccc(-c2cc(C(F)(F)F)nn2-c2ccc(S(N)(=O)=O)cc2)cc1 [Compound 201, Celecoxib] | – |
| 4.49 | – | – | – | – | – | FC(F)(F)c1cc(-c2ccc3c(ccc4ccccc43)c2)n(-c2ccc(-c3nnn[nH]3)cc2)n1 [Compound 203] | – |
| 4.74 | – | – | – | – | – | CC(C)(C)c1ccc(-c2cc(C(F)(F)F)nn2-c2ccc(S(N)(=O)=O)cc2)cc1 [Compound 204] | – |
| 5.00 | – | – | – | – | – | NS(=O)(=O)c1ccc(-n2nc(C(F)(F)F)cc2-c2ccc3ccccc3c2)cc1 [Compound 205] | – |
| 4.62 | 86 | 72 | 33 | 92 | 7 | Cc1ccc(-n2c(-c3ccc(S(N)(=O)=O)cc3)nc3ccccc32)cc1 [Compound 206, 4-[1-(4-methylphenyl)-1H-benzo[d]imidazol-2-yl]benzenesulfonamide] | antiproliferative effect in PC-3 cells (in words) ([1]; PC-3 human prostate cancer cells, DNA assay, FIG. 1): slightly more effective |
| 4.70 | – | – | – | – | – | CC(C)(C)c1ccc(-n2c(-c3ccc(S(N)(=O)=O)cc3)nc3ccccc32)cc1 [Compound 207, 4-(1-(4-tert-butylphenyl)-1H-benzo[d]imidazol-2-yl)benzenesulfonamide] | – |
| 5.00 | – | – | – | – | – | NS(=O)(=O)c1ccc(-c2nc3ccccc3n2-c2ccc3ccccc3c2)cc1 [Compound 208] | – |
| – | 25 | 5 | 12 | 22 | 36 | NS(=O)(=O)c1ccc(-c2nc3ccccc3n2-c2ccc(Cc3ccccc3)cc2)cc1 [Compound 209, 4-(1-(4-benzylphenyl)-1H-benzo[d]imidazol-2-yl)benzenesulfonamide] | % Activity (PDK1(h)): 30% |
| – | 72 | 7 | 18 | 99 | 16 | NS(=O)(=O)c1ccc(-c2nc3ccccc3n2-c2ccc(Oc3ccccc3)cc2)cc1 [Compound 210] | – |
| – | 71 | 13 | 17 | 99 | 11 | NS(=O)(=O)c1ccc(-c2nc3ccccc3n2-c2ccc(-c3ccccc3)cc2)cc1 [Compound 211] | – |

| Structure (SMILES) | pIC50 [1] | % Activity (IKKβ(h)) [%] | % Activity (GSK3β(h)) [%] | % Activity (p70S6K(h)) [%] | % Activity (CK2(h)) [%] | % Activity (CDK1/cyclinB(h)) [%] | other results |
| --- | --- | --- | --- | --- | --- | --- | --- |
| N=C(N)Nc1ccc(-n2nc(C(F)(F)F)cc2-c2ccc3c(ccc4ccccc43)c2)cc1 [Compound 202, OSU-03013] | 5.52 | – | – | – | – | – | concentration diminishing cell proliferation, relative to celecoxib (PC-3 cells): thirty-fold lower |
